In brackets after ≈: the same amount, converted by molar mass. Where no end group is shown, it is not given here.
What was measured:
Assay in all cases: microbe, parasite or virus in culture
[1] = tested on: S. aureus AC29213; conditions: for MIC: Staphylococcus aureus, AC29213, 20 h, read-out: Minimum inhibitory concentration S. aureus AC29213; for Minimum inhibitory concentration S. aureus AC29213: broth microdilution per CSLI guidelines, cation-adjusted Mueller Hinton Broth 2, 5 × 10^5 CFU/mL, 37 °C, 20 h, range 64–0.125 µg/mL, average of three repeat assays
Protocol: (§1) Minimum inhibitory concentrations, determined by broth microdilution, are expressed as an average of three repeat assays. […] [a] MIC values expressed in μg/mL, [b] AC: American Type Culture Collection strain, [c] CW: CANWARD collection clinical isolate strain.33.
(§2) Minimum Inhibitory Concentrations (MIC) were determined for each of the bacteriocins and controls using a broth microdilution method, as per CSLI guidelines for microbial susceptibility testing. The peptides were dissolved in sterile deionized water to prepare the working stocks, with concentrations determined by UV absorbance at 280 nm[56]. Overnight cultures from the strains of interest were incubated with shaking overnight at 37 °C. Cation-adjusted Mueller Hinton Broth 2 (MHB 2) was used for the S. aureus, and S. epidermidis strains and Brain Heart Infusion (BHI) broth was utilized for the E. faecalis and E. faecium strains. The cultures were prepared and diluted to the turbidity of a 0.5 McFarland standard using MHB or BHI fresh media. Increasing concentrations of the leaderless bacteriocins were added to a 96-well polypropylene plate. The range tested for each bacteriocin was 64–0.125 µg/mL. The bacterial culture was further diluted and mixed in a 1:1 ratio with the bacteriocin solution to yield a final concentration in the wells of 5 × 10^5 CFU/mL. […] A 1:1000 dilution of the growth control was prepared in the respective media and plated onto agar (100 μL) to ensure the correct inoculum concentration (5 × 10^5 CFU/mL indicated by ≈ 50 bacterial colonies). The 96-well and agar plates were incubated at 37 °C, and growth was assessed by the formation of a pellet observable with the naked eye after 20 h. […] Each assay was performed in triplicate.
(§3) Materials and instruments […]
(§4) Minimum Inhibitory Concentration (MIC)
(§5) assays were conducted in 96-Well Clear polypropylene corner notch microplates (Corning, #11313595). For the […]

[2] = tested on: S. aureus CW113379; conditions: for MIC: Staphylococcus aureus, CW113379, 20 h, read-out: Minimum inhibitory concentration S. aureus CW113379; for Minimum inhibitory concentration S. aureus CW113379: broth microdilution per CSLI guidelines, cation-adjusted Mueller Hinton Broth 2, 5 × 10^5 CFU/mL, 37 °C, 20 h, range 64–0.125 µg/mL, average of three repeat assays
Protocol: as §1, §2, §3, §4, §5

[3] = tested on: S. aureus CW114125; conditions: for MIC: Staphylococcus aureus, CW114125, 20 h, read-out: Minimum inhibitory concentration S. aureus CW114125; for Minimum inhibitory concentration S. aureus CW114125: broth microdilution per CSLI guidelines, cation-adjusted Mueller Hinton Broth 2, 5 × 10^5 CFU/mL, 37 °C, 20 h, range 64–0.125 µg/mL, average of three repeat assays
Protocol: as §1, §2, §3, §4, §5

[4] = tested on: S. aureus CW115852; conditions: for MIC: Staphylococcus aureus, CW115852, 20 h, read-out: Minimum inhibitory concentration S. aureus CW115852; for Minimum inhibitory concentration S. aureus CW115852: broth microdilution per CSLI guidelines, cation-adjusted Mueller Hinton Broth 2, 5 × 10^5 CFU/mL, 37 °C, 20 h, range 64–0.125 µg/mL, average of three repeat assays
Protocol: as §1, §2, §3, §4, §5

[5] = tested on: S. epidermidis CW131612; conditions: for MIC: Staphylococcus epidermidis, CW131612, 20 h, read-out: Minimum inhibitory concentration S. epidermidis CW131612; for Minimum inhibitory concentration S. epidermidis CW131612: broth microdilution per CSLI guidelines, cation-adjusted Mueller Hinton Broth 2, 5 × 10^5 CFU/mL, 37 °C, 20 h, range 64–0.125 µg/mL, average of three repeat assays
Protocol: as §1, §2, §3, §4, §5

[6] = tested on: S. epidermidis CW130500; conditions: for MIC: Staphylococcus epidermidis, CW130500, 20 h, read-out: Minimum inhibitory concentration S. epidermidis CW130500; for Minimum inhibitory concentration S. epidermidis CW130500: broth microdilution per CSLI guidelines, cation-adjusted Mueller Hinton Broth 2, 5 × 10^5 CFU/mL, 37 °C, 20 h, range 64–0.125 µg/mL, triplicate
Protocol: as §2, §3
(§6) Minimum Inhibitory Concentration (MIC) assays were conducted in 96-Well Clear polypropylene corner notch microplates (Corning, #11313595). For the assay media, cation adjusted Mueller Hinton Broth 2 (Sigma Aldrich, #90922) was used for the S. aureus, and S. epidermidis strains and Brain Heart Infusion broth (BD, #221812) was used for the E. faecalis and E. faecium […]
(§7) used, as well as melittin prepared by automated SPPS. Experimental bacterial strains used were procured from the American Type Culture collection (S. aureus 29213) and the Canadian Antimicrobial Resistance Alliance

[7] = tested on: E. faecalis CW133003; conditions: for Minimum inhibitory concentration E. faecalis CW133003: broth microdilution per CSLI guidelines, Brain Heart Infusion broth, 5 × 10^5 CFU/mL, 37 °C, 20 h, range 64–0.125 µg/mL, average of three repeat assays
Protocol: as §1, §2, §3, §4, §5

[8] = tested on: E. faecalis CW133346; conditions: for Minimum inhibitory concentration E. faecalis CW133346: broth microdilution per CSLI guidelines, Brain Heart Infusion broth, 5 × 10^5 CFU/mL, 37 °C, 20 h, range 64–0.125 µg/mL, triplicate
Protocol: as §2, §3, §6, §7

[9] = tested on: E. faecium CW130826; conditions: for Minimum inhibitory concentration E. faecium CW130826: broth microdilution per CSLI guidelines, Brain Heart Infusion broth, 5 × 10^5 CFU/mL, 37 °C, 20 h, range 64–0.125 µg/mL, triplicate
Protocol: as §2, §3, §6, §7

[10] = tested on: E. faecium CW131126; conditions: for Minimum inhibitory concentration E. faecium CW131126: broth microdilution per CSLI guidelines, Brain Heart Infusion broth, 5 × 10^5 CFU/mL, 37 °C, 20 h, range 64–0.125 µg/mL, triplicate
Protocol: as §2, §3, §6, §7

Molecule	MIC [1]	MIC [2]	MIC [3]	MIC [4]	MIC [5]	MIC [6]	Minimum inhibitory concentration E. faecalis CW133003 [7]	Minimum inhibitory concentration S. aureus AC29213 [1]	Minimum inhibitory concentration S. aureus CW113379 [2]	Minimum inhibitory concentration S. aureus CW114125 [3]	Minimum inhibitory concentration S. aureus CW115852 [4]	Minimum inhibitory concentration S. epidermidis CW131612 [5]	Minimum inhibitory concentration E. faecalis CW133346 [8]	Minimum inhibitory concentration E. faecium CW130826 [9]	Minimum inhibitory concentration E. faecium CW131126 [10]	Minimum inhibitory concentration S. epidermidis CW130500 [6]	MIC ([7]; Enterococcus faecalis, CW133003, 20 h, read-out: Minimum inhibitory concentration E. faecalis CW133003)	MIC ([8]; Enterococcus faecalis, CW133346, 20 h, read-out: Minimum inhibitory concentration E. faecalis CW133346)	MIC ([9]; Enterococcus faecium, CW130826, 20 h, read-out: Minimum inhibitory concentration E. faecium CW130826)	MIC ([10]; Enterococcus faecium, CW131126, 20 h, read-out: Minimum inhibitory concentration E. faecium CW131126)
CC1(C)S[C@@H]2[C@H](NC(=O)[C@H](N)c3ccccc3)C(=O)N2[C@H]1C(=O)O [Ampicillin, ampicillin, reference compound]	2 µg/mL (≈ 5.72 µM)	32 µg/mL (≈ 91.6 µM)	16 µg/mL (≈ 45.8 µM)	4 µg/mL (≈ 11.4 µM)	> 64 µg/mL	8 µg/mL (≈ 22.9 µM)	–	–	–	–	–	–	–	–	–	–	–	–	–	–
CC[C@H](C)[C@H](NC(=O)CN)C(=O)NCC(=O)N[C@@H](C)C(=O)N[C@H](C(=O)N[C@@H](CC(C)C)C(=O)N[C@@H](CCCCN)C(=O)N[C@H](C(=O)N[C@@H](CC(C)C)C(=O)N[C@H](C(=O)N[C@H](C(=O)NCC(=O)N[C@@H](CC(C)C)C(=O)N1CCC[C@H]1C(=O)N[C@@H](C)C(=O)N[C@@H](CC(C)C)C(=O)N[C@H](C(=O)N[C@@H](CO)C(=O)N[C@@H](Cc1c[nH]c2ccccc12)C(=O)N[C@H](C(=O)N[C@@H](CCCCN)C(=O)N[C@@H](CCCNC(=N)N)C(=O)N[C@@H](CCCCN)C(=O)N[C@@H](CCCNC(=N)N)C(=O)N[C@@H](CCC(N)=O)C(=O)N[C@@H](CCC(N)=O)C(N)=O)[C@@H](C)CC)[C@@H](C)CC)[C@@H](C)O)[C@@H](C)O)C(C)C)C(C)C [Melittin, melittin, reference compound]	–	–	–	–	–	–	16 µg/mL (≈ 5.62 µM)	8 µg/mL (≈ 2.81 µM)	4 µg/mL (≈ 1.41 µM)	8 µg/mL (≈ 2.81 µM)	4 µg/mL (≈ 1.41 µM)	4 µg/mL (≈ 1.41 µM)	16 µg/mL (≈ 5.62 µM)	8 µg/mL (≈ 2.81 µM)	8 µg/mL (≈ 2.81 µM)	8 µg/mL (≈ 2.81 µM)	–	–	–	–
CN(C)[C@@H]1C(O)=C(C(N)=O)C(=O)[C@@]2(O)C(O)=C3C(=O)c4c(O)cccc4[C@@](C)(O)[C@H]3C[C@@H]12 [Tetracycline, tetracycline, reference compound]	< 0.125 µg/mL	16 µg/mL (≈ 36 µM)	32 µg/mL (≈ 72 µM)	8 µg/mL (≈ 18 µM)	1 µg/mL (≈ 2.25 µM)	< 0.125 µg/mL	–	–	–	–	–	–	–	–	–	–	1 µg/mL (≈ 2.25 µM)	64 µg/mL (≈ 144 µM)	0.25 µg/mL (≈ 0.563 µM)	> 64 µg/mL
MAGFLKVVQLLAKYGSKAVQLAWANKGKILDWLNAGQAIDWVVSKIKQILGIK-NH2 [L-W21L, L-lacticin Q W21L (Met^1-Lys^53)]	–	–	–	–	–	–	8 µg/mL	16 µg/mL	16 µg/mL	32 µg/mL	32 µg/mL	16 µg/mL	4 µg/mL	4 µg/mL	4 µg/mL	16 µg/mL	–	–	–	–
MAGFLKVVQLLAKYGSKAVQWALANKGKILDWLNAGQAIDWVVSKIKQILGIK-NH2 [L-W23L, L-lacticin Q W23L (Met^1-Lys^53)]	–	–	–	–	–	–	4 µg/mL	32 µg/mL	64 µg/mL	> 64 µg/mL	64 µg/mL	32 µg/mL	8 µg/mL	–	4 µg/mL	–	–	–	–	–
MAGFLKVVQLLAKYGSKAVQWAWANKGKILDLLNAGQAIDWVVSKIKQILGIK-NH2 (C-terminus assumed) [L-W32L, L-lacticin Q W32L (Met^1-Lys^53)]	–	–	–	–	–	–	4 µg/mL	64 µg/mL	32 µg/mL	64 µg/mL	32 µg/mL	16 µg/mL	4 µg/mL	2 µg/mL	4 µg/mL	16 µg/mL	–	–	–	–
MAGFLKVVQLLAKYGSKAVQWAWANKGKILDWLNAGQAIDLVVSKIKQILGIK-NH2 (C-terminus assumed) [L-W41L, L-lacticin Q W41L (Met^1-Lys^53)]	–	–	–	–	–	–	64 µg/mL	> 64 µg/mL	> 64 µg/mL	> 64 µg/mL	> 64 µg/mL	> 64 µg/mL	–	–	8 µg/mL	–	–	–	–	–
MAGFLKVVQLLAKYGSKAVQWAWANKGKILDWLNAGQAIDWVVSKIKQILGIK-NH2 [L-LnqQ, L-lacticin Q (Met^1-Lys^53)]	–	–	–	–	–	–	2 µg/mL	16 µg/mL	32 µg/mL	32 µg/mL	64 µg/mL	8 µg/mL	4 µg/mL	2 µg/mL	2 µg/mL	16 µg/mL	–	–	–	–
MSLLNFLKYIAKYGKKAVSAAWKYKGKVLEWLNVGPTLEWVWQKLKKIAGL-NH2 [L-W3L, L-aureocin A53 W3L (Met^1-Leu^51)]	–	–	–	–	–	–	16 µg/mL	4 µg/mL	4 µg/mL	4 µg/mL	32 µg/mL	4 µg/mL	4 µg/mL	2 µg/mL	4 µg/mL	4 µg/mL	–	–	–	–
MSWLNFLKYIAKYGKKAVSAALKYKGKVLEWLNVGPTLEWVWQKLKKIAGL-NH2 [L-W22L, L-aureocin A53 W22L (Met^1-Leu^51)]	–	–	–	–	–	–	16 µg/mL	2 µg/mL	16 µg/mL	8 µg/mL	16 µg/mL	4 µg/mL	4 µg/mL	2 µg/mL	4 µg/mL	8 µg/mL	–	–	–	–

Reference: PMC10354048 (Communications Chemistry, 2023)
